Data on four compounds can be found in patent publication US12628833B2, “Composition and method for improving plant growth” (ALGAIA, priority 2019, dated 2026).

Common to all, as to format: cell-based
Assay [1] has as its system bacterial species with a recognized PGPR (Plant-Growth Promoting Rhizobacteria) effect. The experiment in a line: Growth in liquid medium (96-well microplate), bacteria not specified. The protocol: (§1) The effect of the addition of algae extracts to a […] culture medium on the growth kinetics of seven bacterial species with a recognized PGPR (Plant-Growth Promoting Rhizobacteria) effect was determined: Bacillus megaterium, Bacillus subtilis, Rhizobium leguminosarum, Azotobacter vinelandii, Pseudomonas fluorescens, Pseudomonas fulva, Arthrobacter agilis.
(§2) Nutrient broth NB culture medium (Sigma-Aldrich) at 25 g/L was used for the multiplication of the following bacteria: Bacillus subtilis, Bacillus megaterium, Arthrobacter agilis, Pseudomonas fluorescens, Pseudomonas fulva. YMA medium (Sigma-Aldrich) without agar was used for Rhizobium leguminosarum bacteria.
(§3) Tests in sterile 96-well round-bottom microplates were performed. An absorbance of 0.06 to 0.08 (600 nm) for inoculation of the bacteria into the microplate was used in these tests.
(§4) Microplate plating included a blank, a positive control, a negative control and the samples.
(§5) The positive control was composed of bacteria and optimum culture medium (nutrient broth NB), in order to verify good multiplication of the bacteria in the microplates.
(§6) The negative control consisted of sterilized distilled water devoid of carbonaceous elements with 20 μl of bacteria inoculated with their NB culture medium, in order to determine how bacterial growth behaved in a medium depleted of any carbonaceous elements.
(§7) The blank was distilled water without bacteria in order to determine possible variations in absorbance and potential bacterial contamination.
(§8) The different algal extract tests consisted of sterile distilled water with the tested solutions at different concentrations (66 μl) to which 20 μl of bacteria were added.
(§9) The different seaweed extracts tested are: commercial mannitol, commercial laminarans, composition according to the invention (laminarans extract).
FIGS. 1 to 3 show a growth of bacterial strains in liquid medium using only the generated extract as carbon source for different bacteria.

The next assay relates to Pseudomonas fluorescens. Description: Growth in liquid medium (96-well microplate, absorbance 600 nm), tested solution as only carbon source. The protocol: as §1, §2, §3, §4, §5, §6, §7, §8, §9
In a further assay the test system is Pseudomonas fulva. The assay is described as above. The protocol:
as §1, §2, §3, §4, §5, §6, §7, §8, §9

For another assay, the system named is Bacillus megaterium. The assay is described as above. The protocol:
as §1, §2, §3, §4, §5, §6, §7, §8, §9

Fucoidans: the “effect on bacterial growth” value in assay [1] (concentrations in the range of <0.01%) is on record as “a small improvement in growth”; in assay [1] (especially when the concentration was above 0.1%), “did not seem to show any real positive effect”.
On to Alginates, for which the “effect on bacterial growth” value in assay [1] (concentration not given) is given as “little effect”.
With laminaran [standard laminaran], the “interaction between bacteria and compound (growth curve versus negative and positive control)” value with Pseudomonas fluorescens (concentration 0.3%) is “absence of interaction between bacteria and compounds”; with Pseudomonas fluorescens (concentration 0.5%), “absence of interaction between bacteria and compounds”; with Pseudomonas fluorescens (concentration 1%), “positive interaction between bacteria and compounds”; in the assay on Pseudomonas fulva (concentration 0.3%), “absence of interaction between bacteria and compounds”; in the assay on Pseudomonas fulva (concentration 0.5%) it was “absence of interaction between bacteria and compounds”; in the assay on Pseudomonas fulva (concentration 1%), “positive interaction between bacteria and compounds”. The “interaction between bacteria and compound (growth curve versus negative and positive control)” value with Bacillus megaterium (concentration 0.3%) was “absence of interaction between bacteria and compounds”; in the assay on Bacillus megaterium (concentration 0.5%), “absence of interaction between bacteria and compounds”; with Bacillus megaterium (concentration 1%) it was “positive interaction between bacteria and compounds”. For the same compound, in assay [1] (used alone), the “concentration from which it can be used as a carbon source (increase in bacterial growth)” value was “about 1%”. The “dependence of the effect on bacterial growth on concentration” value in assay [1] (used alone as carbon source) was “the higher the concentration, the greater the effect”.
Take `OC[C@@H](O)[C@@H](O)[C@H](O)[C@H](O)CO` [purified mannitol, mannitol]: the “interaction between bacteria and compound (growth curve versus negative and positive control)” value in the assay on Pseudomonas fluorescens (concentration 0.3%) was “absence of interaction between bacteria and compounds”; in the assay with Pseudomonas fluorescens (concentration 0.5%), “absence of interaction between bacteria and compounds”; in the assay on Pseudomonas fluorescens (concentration 1%), “positive interaction between bacteria and compounds”; in the assay on Pseudomonas fulva (concentration 0.3%), “absence of interaction between bacteria and compounds”; in the assay on Pseudomonas fulva (concentration 0.5%), “absence of interaction between bacteria and compounds”; in the assay with Pseudomonas fulva (concentration 1%), “positive interaction between bacteria and compounds”. Besides, the “interaction between bacteria and compound (growth curve versus negative and positive control)” value was “absence of interaction between bacteria and compounds” in the assay with Bacillus megaterium (concentration 0.3%); “absence of interaction between bacteria and compounds” with Bacillus megaterium (concentration 0.5%); “positive interaction between bacteria and compounds” in the assay on Bacillus megaterium (concentration 1%). In addition, the “concentration of maximum effect on bacterial growth” value in assay [1] (sole source of carbon) came to 1%. Moreover, the “effect on bacterial growth” value in assay [1] (sole source of carbon, higher concentrations (2%)) is reported as “very little or no effect”; in assay [1] (sole source of carbon, lower concentrations (0.1%)), “very little or no effect”.
